Measurements: PubChem BioAssay AID248 (DTP/NCI, 2004)
Several values for one entry are separate records, joined by “and”; a condition that tells them apart may be missing. Equal values may be shown once. Toxic doses and inconclusive results are not listed.

System: L1210 leukemia ip in BDF1 mice, survival T/C
Assay: NCI In Vivo Anticancer Drug Screen. Data for tumor model L1210 Leukemia (intraperitoneal) in B6D2F1 (BDF1) mice
Settings: endpoint: mean survival time, higher = longer survival
In short: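 Each compound was tested against a transplantable tumor grown in mice. The endpoint was survival, with treated animals benchmarked against vehicle controls as a simple ratio.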

[1] = dose: 100.0 mg/kg/injection, schedule: Q04DX003 (ip), vehicle: saline with Tween-80
[2] = dose: 200.0 mg/kg/injection, schedule: Q04DX003 (ip), vehicle: saline with Tween-80
[3] = dose: 6.25 mg/kg/injection, schedule: Q04DX003 (ip), vehicle: saline with Tween-80
[4] = dose: 100.0 mg/kg/injection, schedule: Q01DX001 (ip), vehicle: saline
[5] = dose: 200.0 mg/kg/injection, schedule: Q01DX001 (ip), vehicle: saline
[6] = dose: 400.0 mg/kg/injection, schedule: Q01DX001 (ip), vehicle: saline
[7] = dose: 100.0 mg/kg/injection, schedule: Q01DX009 (ip), vehicle: saline with Tween-80
[8] = dose: 100.0 mg/kg/injection, schedule: Q01DX009 (ip), vehicle: Klucel (hydroxypropylcellulose) (HPC)
[9] = dose: 200.0 mg/kg/injection, schedule: Q01DX009 (ip), vehicle: Klucel (hydroxypropylcellulose) (HPC)
[10] = dose: 400.0 mg/kg/injection, schedule: Q01DX009 (ip), vehicle: Klucel (hydroxypropylcellulose) (HPC)
[11] = dose: 100.0 mg/kg/injection, schedule: Q04DX003 (ip), vehicle: Klucel (hydroxypropylcellulose) (HPC)
[12] = dose: 200.0 mg/kg/injection, schedule: Q04DX003 (ip), vehicle: Klucel (hydroxypropylcellulose) (HPC)
[13] = dose: 50.0 mg/kg/injection, schedule: Q01DX009 (ip), vehicle: Klucel (hydroxypropylcellulose) (HPC)
[14] = dose: 100.0 mg/kg/injection, schedule: Q04DX002 (ip), vehicle: Klucel (hydroxypropylcellulose) (HPC)

## Cc1ccc(N=Nc2ccc(N(C)C)cc2)c2cccnc12
[1]
  T/C: 113 % of control
[2]
  T/C: 95 % of control

## COc1cc(Nc2ncnc(N)c2[N+](=O)[O-])cc(OC)c1OC
[2]
  T/C: 88 % of control

## CC(=O)OC1CSC1OC(C)=O (stereo not drawn)
dose: 100.0 mg/kg/injection, schedule: Q01DX001 (ip), vehicle: saline with Tween-80
  T/C: 95 % of control
dose: 200.0 mg/kg/injection, schedule: Q01DX001 (ip), vehicle: saline with Tween-80
  T/C: 93 % of control
dose: 400.0 mg/kg/injection, schedule: Q01DX001 (ip), vehicle: saline with Tween-80
  T/C: 98 % of control

## CNC1C(O)C(OC)OC2COC(c3ccccc3)OC21 (stereo not drawn)
[1]
  T/C: 93 % of control
[2]
  T/C: 93 % of control

## CN1CCN(C(=O)Nc2cccc(Cl)c2Cl)CC1
dose: 25.0 mg/kg/injection, schedule: Q01DX009 (ip), vehicle: saline
  T/C: 92 % of control
dose: 50.0 mg/kg/injection, schedule: Q01DX009 (ip), vehicle: saline
  T/C: 87 % of control
dose: 100.0 mg/kg/injection, schedule: Q01DX009 (ip), vehicle: saline
  T/C: 97 % of control and 102 % of control

## COc1ccc(C(c2ccc(OC)cc2)c2cccc([N+](=O)[O-])c2)cc1
[1]
  T/C: 97 % of control
[2]
  T/C: 92 % of control

## CN(C)C=Nc1ccc2c3c(cccc13)CC2
[3]
  T/C: 103 % of control
dose: 12.5 mg/kg/injection, schedule: Q04DX003 (ip), vehicle: saline with Tween-80
  T/C: 88 % of control
dose: 25.0 mg/kg/injection, schedule: Q04DX003 (ip), vehicle: saline with Tween-80
  T/C: 98 % of control

## COC(=O)CN1C(c2ccccc2)=CS(=O)(=O)C=C1c1ccccc1
[4]
  T/C: 101 % of control
[5]
  T/C: 97 % of control
[6]
  T/C: 93 % of control

## CC(C(c1ccccc1)c1ccc(Cl)cc1)[N+](=O)[O-] (stereo not drawn)
dose: 22.0 mg/kg/injection, schedule: Q01DX009 (ip), vehicle: saline with Tween-80
  T/C: 102 % of control
dose: 33.0 mg/kg/injection, schedule: Q01DX009 (ip), vehicle: saline with Tween-80
  T/C: 96 % of control
dose: 50.0 mg/kg/injection, schedule: Q01DX009 (ip), vehicle: saline with Tween-80
  T/C: 94 % of control
dose: 75.0 mg/kg/injection, schedule: Q01DX009 (ip), vehicle: saline with Tween-80
  T/C: 112 % of control
[4]
  T/C: 87 % of control
[7]
  T/C: 103 % of control
[1]
  T/C: 95 % of control
dose: 100.0 mg/kg/injection, schedule: Q04DX003 (ip), vehicle: saline
  T/C: 102 % of control
[5]
  T/C: 95 % of control
[2]
  T/C: 102 % of control
dose: 200.0 mg/kg/injection, schedule: Q04DX003 (ip), vehicle: saline
  T/C: 89 % of control
[6]
  T/C: 88 % of control

## Cc1ccc(S(=O)(=O)N/N=C\c2cccc([N+](=O)[O-])c2)cc1
[8]
  T/C: 103 % of control
[9]
  T/C: 98 % of control
[10]
  T/C: 93 % of control

## O=C(OCC(Cl)(Cl)Cl)OCC(Cl)(Cl)Cl
[11]
  T/C: 98 % of control
[12]
  T/C: 98 % of control

## CP(=S)(c1ccccc1)P(C)(=S)c1ccccc1 (stereo not drawn)
[8]
  T/C: 99 % of control
[11]
  T/C: 98 % of control
[9]
  T/C: 103 % of control
[12]
  T/C: 101 % of control
[10]
  T/C: 94 % of control
dose: 400.0 mg/kg/injection, schedule: Q04DX003 (ip), vehicle: Klucel (hydroxypropylcellulose) (HPC)
  T/C: 98 % of control

## COc1cccc(/C=N/N=C(N)N)c1
dose: 15.0 mg/kg/injection, schedule: Q01DX Z (ip), vehicle: saline
  T/C: 94 % of control
dose: 30.0 mg/kg/injection, schedule: Q01DX Z (ip), vehicle: saline
  T/C: 97 % of control
dose: 30.0 mg/kg/injection, schedule: Q01DX Z (oral), vehicle: saline
  T/C: 104 % of control
dose: 60.0 mg/kg/injection, schedule: Q01DX Z (ip), vehicle: saline
  T/C: 92 % of control
dose: 60.0 mg/kg/injection, schedule: Q01DX Z (oral), vehicle: saline
  T/C: 104 % of control
dose: 120.0 mg/kg/injection, schedule: Q01DX Z (oral), vehicle: saline
  T/C: 101 % of control

## CCNC(=O)c1cc(NC(=O)Nc2ccc(C3=NCCN3)cc2)cc(NC(=O)Nc2ccc(C3=NCCN3)cc2)c1
dose: 62.0 mg/kg/injection, schedule: Q01DX Z (ip), vehicle: carboxymethylcellulose (CMC)
  T/C: 102 % of control
dose: 125.0 mg/kg/injection, schedule: Q01DX Z (ip), vehicle: carboxymethylcellulose (CMC)
  T/C: 103 % of control
dose: 250.0 mg/kg/injection, schedule: Q01DX Z (ip), vehicle: carboxymethylcellulose (CMC)
  T/C: 107 % of control
dose: 500.0 mg/kg/injection, schedule: Q01DX Z (ip), vehicle: carboxymethylcellulose (CMC)
  T/C: 102 % of control

## CCCCN(C)/N=N/c1[nH]ncc1C(=O)OC
dose: 268.0 mg/kg/injection, schedule: Q01DX007 (ip), vehicle: other
  T/C: 150 % of control
dose: 600.0 mg/kg/injection, schedule: Q01DX007 (ip), vehicle: other
  T/C: 88 % of control

## O=C1NC(C2CC3C=CC2C3)Nc2ccccc21 (stereo not drawn)
dose: 12.5 mg/kg/injection, schedule: Q01DX009 (ip), vehicle: Klucel (hydroxypropylcellulose) (HPC)
  T/C: 100 % of control
dose: 12.5 mg/kg/injection, schedule: Q04DX003 (ip), vehicle: Klucel (hydroxypropylcellulose) (HPC)
  T/C: 111 % of control
dose: 25.0 mg/kg/injection, schedule: Q01DX009 (ip), vehicle: Klucel (hydroxypropylcellulose) (HPC)
  T/C: 101 % of control
dose: 25.0 mg/kg/injection, schedule: Q04DX003 (ip), vehicle: Klucel (hydroxypropylcellulose) (HPC)
  T/C: 103 % of control
[13]
  T/C: 96 % of control
dose: 50.0 mg/kg/injection, schedule: Q04DX003 (ip), vehicle: Klucel (hydroxypropylcellulose) (HPC)
  T/C: 103 % of control

## CCNc1nc(NCC)c(Cl)c(C(Cl)(Cl)Cl)n1
[13]
  T/C: 102 % of control
[8]
  T/C: 102 % of control
[9]
  T/C: 105 % of control

## CC1([CH2][Hg][Cl])Cc2ccccc2O1 (stereo not drawn)
[3]
  T/C: 96 % of control

## CC(C)=CCC/C(C)=C/COC(=O)C(CC=C(C)C)CCN1CCN(CC=C(C)C)CC1 (stereo not drawn)
[7]
  T/C: 98 % of control
[14]
  T/C: 88 % of control
dose: 200.0 mg/kg/injection, schedule: Q01DX009 (ip), vehicle: saline with Tween-80
  T/C: 92 % of control
dose: 200.0 mg/kg/injection, schedule: Q04DX002 (ip), vehicle: Klucel (hydroxypropylcellulose) (HPC)
  T/C: 92 % of control
dose: 400.0 mg/kg/injection, schedule: Q04DX002 (ip), vehicle: Klucel (hydroxypropylcellulose) (HPC)
  T/C: 98 % of control

## CCOC(=N)c1nnn(Cc2ccccc2)c1N
[4]
  T/C: 89 % of control
[5]
  T/C: 89 % of control

## Oc1ccc(O)c2[nH]c(-c3ccc(Cl)cc3)cc12
dose: 25.0 mg/kg/injection, schedule: Q04DX002 (ip), vehicle: Klucel (hydroxypropylcellulose) (HPC)
  T/C: 94 % of control
dose: 50.0 mg/kg/injection, schedule: Q04DX002 (ip), vehicle: Klucel (hydroxypropylcellulose) (HPC)
  T/C: 100 % of control
[14]
  T/C: 100 % of control

## CCC1c2ccc3cc(OC)ccc3c2C(=O)CC1C(=O)O (stereo not drawn)
dose: 100.0 mg/kg/injection, schedule: Q01DX009 (sc), vehicle: steriod suspending solution
  T/C: 102 % of control
dose: 100.0 mg/kg/injection, schedule: Q04DX003 (sc), vehicle: steriod suspending solution
  T/C: 104 % of control
dose: 200.0 mg/kg/injection, schedule: Q01DX009 (sc), vehicle: steriod suspending solution
  T/C: 96 % of control
dose: 200.0 mg/kg/injection, schedule: Q04DX003 (sc), vehicle: steriod suspending solution
  T/C: 98 % of control
dose: 400.0 mg/kg/injection, schedule: Q01DX009 (sc), vehicle: steriod suspending solution
  T/C: 106 % of control
dose: 400.0 mg/kg/injection, schedule: Q04DX003 (sc), vehicle: steriod suspending solution
  T/C: 105 % of control

## CC(C)OC(=O)Nc1ccncc1
dose: 3.13 mg/kg/injection, schedule: Q01DX009 (ip), vehicle: saline with Tween-80
  T/C: 93 % of control
dose: 6.25 mg/kg/injection, schedule: Q01DX009 (ip), vehicle: saline with Tween-80
  T/C: 97 % of control
dose: 6.25 mg/kg/injection, schedule: Q04DX002 (ip), vehicle: saline with Tween-80
  T/C: 110 % of control
dose: 12.5 mg/kg/injection, schedule: Q01DX009 (ip), vehicle: saline with Tween-80
  T/C: 101 % of control
dose: 12.5 mg/kg/injection, schedule: Q04DX002 (ip), vehicle: saline with Tween-80
  T/C: 96 % of control

## COc1ccccc1NC(=O)C(N=Nc1ccc(S(=O)(=O)Nc2onc(C)c2C)cc1)C(C)=O (stereo not drawn)
dose: 75.0 mg/kg/injection, schedule: Q01DX001 (ip), vehicle: saline
  T/C: 92 % of control
dose: 150.0 mg/kg/injection, schedule: Q01DX001 (ip), vehicle: saline
  T/C: 94 % of control
dose: 300.0 mg/kg/injection, schedule: Q01DX001 (ip), vehicle: saline
  T/C: 87 % of control
